Where only a bound is given, the exact number is not on record here.

For this assay, the target named is T1, human Nav1.8 (Homo sapiens, UniProt Q9Y5Y9).
T1 construct: expressed in transfected cells; host or cells: HEK293 (HEK293-Nav1.8)
T1 sequence (Q9Y5Y9 whole entry): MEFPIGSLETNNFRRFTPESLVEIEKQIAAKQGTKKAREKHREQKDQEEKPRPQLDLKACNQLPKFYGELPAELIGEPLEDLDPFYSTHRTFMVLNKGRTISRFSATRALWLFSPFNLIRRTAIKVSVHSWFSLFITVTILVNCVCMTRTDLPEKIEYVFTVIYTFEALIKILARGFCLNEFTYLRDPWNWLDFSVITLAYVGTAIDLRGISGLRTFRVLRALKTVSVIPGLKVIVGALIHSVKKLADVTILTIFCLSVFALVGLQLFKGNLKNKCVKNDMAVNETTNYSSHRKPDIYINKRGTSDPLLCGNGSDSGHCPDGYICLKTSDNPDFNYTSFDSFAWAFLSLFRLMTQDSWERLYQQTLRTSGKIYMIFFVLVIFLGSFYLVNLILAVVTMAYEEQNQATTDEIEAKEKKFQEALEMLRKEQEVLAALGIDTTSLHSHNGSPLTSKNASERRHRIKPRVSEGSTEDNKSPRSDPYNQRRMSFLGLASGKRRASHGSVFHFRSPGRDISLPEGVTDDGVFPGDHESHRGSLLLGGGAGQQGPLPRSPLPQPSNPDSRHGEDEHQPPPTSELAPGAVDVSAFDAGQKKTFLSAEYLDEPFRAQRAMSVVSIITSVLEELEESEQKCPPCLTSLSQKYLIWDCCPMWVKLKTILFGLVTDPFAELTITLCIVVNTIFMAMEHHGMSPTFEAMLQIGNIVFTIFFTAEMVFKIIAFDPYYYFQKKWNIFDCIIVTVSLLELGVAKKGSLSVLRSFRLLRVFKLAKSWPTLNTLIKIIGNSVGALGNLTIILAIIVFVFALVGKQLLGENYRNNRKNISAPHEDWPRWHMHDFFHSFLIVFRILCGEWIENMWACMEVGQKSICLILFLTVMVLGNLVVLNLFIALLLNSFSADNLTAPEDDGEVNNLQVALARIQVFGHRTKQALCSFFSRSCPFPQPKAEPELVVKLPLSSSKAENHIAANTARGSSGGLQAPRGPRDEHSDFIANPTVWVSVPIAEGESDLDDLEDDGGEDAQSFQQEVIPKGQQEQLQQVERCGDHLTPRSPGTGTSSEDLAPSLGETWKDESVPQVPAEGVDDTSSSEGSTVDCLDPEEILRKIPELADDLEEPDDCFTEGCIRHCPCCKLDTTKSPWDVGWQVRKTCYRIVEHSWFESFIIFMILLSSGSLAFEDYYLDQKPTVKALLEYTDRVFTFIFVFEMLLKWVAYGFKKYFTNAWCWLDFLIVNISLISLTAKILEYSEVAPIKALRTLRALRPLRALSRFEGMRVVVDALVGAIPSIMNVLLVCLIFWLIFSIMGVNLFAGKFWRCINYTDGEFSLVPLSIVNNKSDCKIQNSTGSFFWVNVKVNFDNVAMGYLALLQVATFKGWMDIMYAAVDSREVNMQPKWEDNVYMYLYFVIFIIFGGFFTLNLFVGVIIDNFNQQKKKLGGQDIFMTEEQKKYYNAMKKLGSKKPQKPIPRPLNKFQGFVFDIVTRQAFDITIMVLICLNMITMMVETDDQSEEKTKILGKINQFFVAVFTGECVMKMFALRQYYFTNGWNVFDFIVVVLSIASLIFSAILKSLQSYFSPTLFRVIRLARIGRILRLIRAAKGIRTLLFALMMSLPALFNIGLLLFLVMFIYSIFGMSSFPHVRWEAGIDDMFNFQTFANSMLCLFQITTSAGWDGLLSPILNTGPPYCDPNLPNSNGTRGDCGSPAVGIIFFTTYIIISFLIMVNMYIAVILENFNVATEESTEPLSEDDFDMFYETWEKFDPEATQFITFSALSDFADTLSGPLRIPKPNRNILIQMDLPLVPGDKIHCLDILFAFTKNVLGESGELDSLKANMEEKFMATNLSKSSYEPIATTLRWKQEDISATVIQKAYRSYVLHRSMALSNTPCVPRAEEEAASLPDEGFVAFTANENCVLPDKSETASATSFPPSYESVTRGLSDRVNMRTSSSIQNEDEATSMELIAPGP
T1 sequence (Q07699 19-218 partner): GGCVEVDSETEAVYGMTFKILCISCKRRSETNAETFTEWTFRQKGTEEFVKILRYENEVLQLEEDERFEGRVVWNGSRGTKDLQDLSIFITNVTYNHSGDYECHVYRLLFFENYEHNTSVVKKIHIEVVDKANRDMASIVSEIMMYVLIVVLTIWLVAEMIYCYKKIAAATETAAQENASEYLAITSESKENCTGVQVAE
Description: Nav1.8 sodium channels assay, QPatch 48 HTX electrophysiology in HEK293-Nav1.8 cells. In kind it is cell-based. The note with it: at least one set of experimental runs; read-out: average pIC50 value against Nav1.8 (converted). The essentials: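 HEK293 cells co-expressing human Nav1.8, Navβ1 and TREK1 were voltage-clamped on QPatch 48 HTX. The V1/2 protocol ran at 0.07 Hz: hold −100 mV, 20 ms to 0 mV, 8 s at −46 mV, 20 ms at −100 mV, then 20 ms at 0 mV (P2). P2 current was fitted over 6-8 concentrations for IC50, with vehicle wells used to correct for run-down.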
(The patch-clamp technique gives a direct electrical read-out from membranes.)
With `Cc1[nH]c(=O)ccc1N1CN(c2ccc(F)cc2C(C)C)c2cc(OC(F)(F)F)ccc2C1=O` [Example 103, 1-(4-fluoro-2-isopropylphenyl)-3-(2-methyl-6-oxo-1,6-dihydropyridin-3-yl)-7-(trifluoromethoxy)-2,3-dihydroquinazolin-4(1H)-one], the IC50 is at most 100 nM.

For `Cc1cc(F)ccc1N1CN(c2ccc(=O)[nH]c2C)C(=O)c2cc(Cl)c(F)cc21` [Example 104, 6-chloro-7-fluoro-1-(4-fluoro-2-methylphenyl)-3-(2-methyl-6-oxo-1,6-dihydropyridin-3-yl)-2,3-dihydroquinazolin-4(1H)-one], the IC50 was at most 100 nM.

`Cc1cc(F)ccc1N1CN(c2ccc(=O)[nH]c2C)C(=O)c2cc(Cl)c(C#N)cc21` [Example 105, 6-chloro-1-(4-fluoro-2-methylphenyl)-3-(2-methyl-6-oxo-1,6-dihydropyridin-3-yl)-4-oxo-1,2,3,4-tetrahydroquinazoline-7-carbonitrile]: the IC50 is at most 100 nM.

In the case of `CCc1[nH]c(=O)ccc1N1CN(c2ccc(F)cc2C)c2ccc(Cl)cc2C1=O` [Example 106, 6-chloro-3-(2-ethyl-6-oxo-1,6-dihydropyridin-3-yl)-1-(4-fluoro-2-methylphenyl)-2,3-dihydroquinazolin-4(1H)-one], the IC50 is at most 100 nM.

As for `Cc1cc(F)ccc1N1CN(c2ccc(=O)[nH]c2C)C(=O)c2cc(C(F)(F)F)c(F)cc21` [Example 107, 7-fluoro-1-(4-fluoro-2-methylphenyl)-3-(2-methyl-6-oxo-1,6-dihydropyridin-3-yl)-6-(trifluoromethyl)-2,3-dihydroquinazolin-4(1H)-one], the IC50 was at most 100 nM.

As to `Cc1cc(F)ccc1N1CN(c2ccc(=O)[nH]c2C)C(=O)c2c1ccc(C(F)(F)F)c2F` [Example 108, 5-fluoro-1-(4-fluoro-2-methylphenyl)-3-(2-methyl-6-oxo-1,6-dihydropyridin-3-yl)-6-(trifluoromethyl)-2,3-dihydroquinazolin-4(1H)-one], the IC50 was at most 100 nM.

Consider `Cc1cc(F)ccc1N1CN(c2ccc(=O)[nH]c2C)C(=O)c2cc(F)c(Cl)cc21` [Example 109, 7-chloro-6-fluoro-1-(4-fluoro-2-methylphenyl)-3-(2-methyl-6-oxo-1,6-dihydropyridin-3-yl)-2,3-dihydroquinazolin-4(1H)-one], for which the IC50 was at most 100 nM.

Take `Cc1cc(F)ccc1N1CN(c2ccc(=O)[nH]c2C)C(=O)c2cc(F)c(C(F)(F)F)cc21` [Example 110, 6-fluoro-1-(4-fluoro-2-methylphenyl)-3-(2-methyl-6-oxo-1,6-dihydropyridin-3-yl)-7-(trifluoromethyl)-2,3-dihydroquinazolin-4(1H)-one]: the IC50 was at most 100 nM.

Regarding `Cc1cc(F)ccc1N1CN(c2ccc(=O)[nH]c2C)C(=O)c2cc(C(F)(F)F)c(C#N)cc21` [Example 111, 1-(4-fluoro-2-methylphenyl)-3-(2-methyl-6-oxo-1,6-dihydropyridin-3-yl)-4-oxo-6-(trifluoromethyl)-1,2,3,4-tetrahydroquinazoline-7-carbonitrile], the IC50 was at most 100 nM.

With `Cc1cc(F)ccc1N1CN(c2ccc(=O)[nH]c2C)C(=O)c2cc(C#N)c(OC(F)(F)F)cc21` [Example 112, 1-(4-fluoro-2-methylphenyl)-3-(2-methyl-6-oxo-1,6-dihydropyridin-3-yl)-4-oxo-7-(trifluoromethoxy)-1,2,3,4-tetrahydroquinazoline-6-carbonitrile], the IC50 is at most 100 nM.

For the molecule `Cc1cc(F)c(F)cc1N1CN(c2ccc(=O)[nH]c2C)C(=O)c2cc(C(F)(F)F)ccc21` [Example 113, 1-(4,5-difluoro-2-methylphenyl)-3-(2-methyl-6-oxo-1,6-dihydropyridin-3-yl)-6-(trifluoromethyl)-2,3-dihydroquinazolin-4(1H)-one], the IC50 was 126 to 631 nM.

Turning to `Cc1[nH]c(=O)ccc1N1CN(c2ccc(F)cc2C(C)(C)C)c2cc(C(F)(F)F)ccc2C1=O` [Example 114, 1-(2-(tert-butyl)-4-fluorophenyl)-3-(2-methyl-6-oxo-1,6-dihydropyridin-3-yl)-7-(trifluoromethyl)-2,3-dihydroquinazolin-4(1H)-one], the IC50 was at most 100 nM.

For the molecule `Cc1cc(F)ccc1N1CN(c2cnc(=O)[nH]c2C)C(=O)c2ccc(C(F)(F)F)cc21` [Example 115, 1-(4-fluoro-2-methylphenyl)-3-(6-methyl-2-oxo-1,2-dihydropyrimidin-5-yl)-7-(trifluoromethyl)-2,3-dihydroquinazolin-4(1H)-one], the IC50 is at most 100 nM.

On to `CCc1cc(F)ccc1N1CN(c2ccc(=O)[nH]c2C)C(=O)c2cc(F)ccc21` [Example 116, 1-(2-ethyl-4-fluorophenyl)-6-fluoro-3-(2-methyl-6-oxo-1,6-dihydropyridin-3-yl)-2,3-dihydroquinazolin-4(1H)-one], for which the IC50 was at most 100 nM.

In the case of `Cc1cc(C#N)ccc1N1CN(c2ccc(=O)[nH]c2C)C(=O)c2cc(Cl)ccc21` [Example 117, 4-(6-chloro-3-(2-methyl-6-oxo-1,6-dihydropyridin-3-yl)-4-oxo-3,4-dihydroquinazolin-1(2H)-yl)-3-methylbenzonitrile], the IC50 is at most 100 nM.

For `Cc1ccc(F)cc1N1CN(c2ccc(=O)[nH]c2C)C(=O)c2cc(C(F)(F)F)ccc21` [Example 118, 1-(5-fluoro-2-methylphenyl)-3-(2-methyl-6-oxo-1,6-dihydropyridin-3-yl)-6-(trifluoromethyl)-2,3-dihydroquinazolin-4(1H)-one], the IC50 is 126 to 631 nM.

With `Cc1cc(OC(F)(F)F)ccc1N1CN(c2ccc(=O)[nH]c2)C(=O)c2cc(C(F)(F)F)cnc21` [Example 119, 1-(2-methyl-4-(trifluorometh-oxy)phenyl)-3-(6-oxo-1,6-dihydropyridin-3-yl)-6-(trifluoromethyl)-2,3-dihydropyrido[2,3-d]pyrimidin-4(1H)-one], the IC50 was 126 to 631 nM.

`Cc1[nH]c(=O)ccc1N1CN(c2cccc(F)c2C)c2ccc(C(F)(F)F)cc2C1=O` [Example 120, 1-(3-fluoro-2-methylphenyl)-3-(2-methyl-6-oxo-1,6-dihydropyridin-3-yl)-6-(trifluoromethyl)-2,3-dihydroquinazolin-4(1H)-one]: the IC50 was at most 100 nM.

As for `Cc1cc(F)cc(F)c1N1CN(c2ccc(=O)[nH]c2C)C(=O)c2cc(C(F)(F)F)ccc21` [Example 121, 1-(2,4-difluoro-6-methylphenyl)-3-(2-methyl-6-oxo-1,6-dihydropyridin-3-yl)-6-(trifluoromethyl)-2,3-dihydroquinazolin-4(1H)-one], the IC50 was 126 to 631 nM.

For the molecule `Cc1[nH]c(=O)ccc1N1CN(c2ccc(F)cc2C(C)C)c2nc(C(F)F)ccc2C1=O` [Example 122, 7-(difluoromethyl)-1-(4-fluoro-2-isopropylphenyl)-3-(2-methyl-6-oxo-1,6-dihydropyridin-3-yl)-2,3-dihydropyrido[2,3-d]pyrimidin-4(1H)-one], the IC50 is at most 100 nM.

As for `Cc1cc(C#N)ccc1N1CN(c2ccc(=O)[nH]c2C)C(=O)c2cc(OC(F)(F)F)ccc21` [Example 123, 3-methyl-4-(3-(2-methyl-6-oxo-1,6-dihydropyridin-3-yl)-4-oxo-6-(trifluoromethoxy)-3,4-dihydroquinazolin-1(2H)-yl)benzonitrile], the IC50 is at most 100 nM.

Consider `Cc1cc(F)ccc1N1CN(c2ccc(=O)[nH]c2C)C(=O)c2cccc(Cl)c21` [Example 124, 8-chloro-1-(4-fluoro-2-methylphenyl)-3-(2-methyl-6-oxo-1,6-dihydropyridin-3-yl)-2,3-dihydroquinazolin-4(1H)-one], for which the IC50 was 794 to 7940 nM.

For `Cc1cc(F)ccc1N1CN(c2ccc(=O)[nH]c2C)C(=O)c2cccc(C)c21` [Example 125, 1-(4-fluoro-2-methylphenyl)-8-methyl-3-(2-methyl-6-oxo-1,6-dihydropyridin-3-yl)-2,3-dihydroquinazolin-4(1H)-one], the IC50 is 794 to 7940 nM.

In the case of `COc1ccc(N2CN(c3ccc(=O)[nH]c3C)C(=O)c3cc(C(F)(F)F)ccc32)c(C)c1` [Example 126, 1-(4-methoxy-2-methylphenyl)-3-(2-methyl-6-oxo-1,6-dihydropyridin-3-yl)-6-(trifluoromethyl)-2,3-dihydroquinazolin-4(1H)-one], the IC50 is at most 100 nM.

Take `Cc1cc(O)ccc1N1CN(c2ccc(=O)[nH]c2C)C(=O)c2cc(C(F)(F)F)ccc21` [Example 127, 1-(4-hydroxy-2-methylphenyl)-3-(2-methyl-6-oxo-1,6-dihydropyridin-3-yl)-6-(trifluoromethyl)-2,3-dihydroquinazolin-4(1H)-one]: the IC50 was 126 to 631 nM.

As for `Cc1[nH]c(=O)ccc1N1CN(c2cccc(C#N)c2C)c2ccc(Cl)cc2C1=O` [Example 128, 3-(6-chloro-3-(2-methyl-6-oxo-1,6-dihydropyridin-3-yl)-4-oxo-3,4-dihydroquinazolin-1(2H)-yl)-2-methylbenzonitrile], the IC50 is 126 to 631 nM.

For `Cc1cc(F)ccc1N1CN(c2ccc(=O)[nH]c2C)C(=O)c2cc(F)c(OC(F)(F)F)cc21` [Example 129, 6-fluoro-1-(4-fluoro-2-methylphenyl)-3-(2-methyl-6-oxo-1,6-dihydropyridin-3-yl)-7-(trifluoromethoxy)-2,3-dihydroquinazolin-4(1H)-one], the IC50 is at most 100 nM.

Turning to `Cc1cc(F)ccc1N1CN(c2ccc(=O)[nH]c2C)C(=O)c2c(C(F)F)cccc21` [Example 130, 5-(difluoromethyl)-1-(4-fluoro-2-methylphenyl)-3-(2-methyl-6-oxo-1,6-dihydropyridin-3-yl)-2,3-dihydroquinazolin-4(1H)-one], the IC50 was 126 to 631 nM.

In the case of `Cc1cc(F)ccc1N1CN(c2cc(F)c(=O)[nH]c2C)C(=O)c2cc(C(F)(F)F)ccc21` [Example 131, 3-(5-fluoro-2-methyl-6-oxo-1,6-dihydropyridin-3-yl)-1-(4-fluoro-2-methylphenyl)-6-(trifluoromethyl)-2,3-dihydroquinazolin-4(1H)-one], the IC50 was at most 100 nM.

The values above are taken from patent US20230103791A1 (GLAXOSMITHKLINE INTELLECTUAL PROPERTY DEVELOPMENT LIMITED, priority 2019, published 2023).
